According to patent US11510906B1, “Diazacyclobutene derivatives as anti-parasitic drug substances” (Clemson University, priority 2019, dated 2022):

Tested on: Trypanosoma brucei brucei bloodstream form (BSF) parasites (cell line 90-13, a 427 strain)
Assay: Parasite viability assay (CellTiter Blue), bloodstream form African trypanosomes
Format: cell-based
Conditions: for % BSF Growth Inhibition @ 10 μM: 10 μM compound, 48 hours; for EC50: 48 hours at 37° C., averages of triplicates
Protocol: To determine the impact of diazacyclobutene derivatives on the growth of African trypanosomes (Trypanosoma brucei brucei) as a representative parasite, bloodstream form (BSF) parasites (cell line 90-13, a 427 strain at 1×10^5 cell/mL) were seeded into 384-well black plates in 40 μL HMI-9 supplemented with 10% fetal bovine serum and 10% Serum Plus (Sigma-Aldrich, St. Louis Mo.) in the presence of compound or equivalently diluted carrier. After 48 hours at 37° C. in 5% CO2, CellTiter Blue (8 μL, Promega, Madison Wis.) was added and the plates incubated an additional 3 hours. Fluorescence emission at A585 was then measured after excitation at A546 on a Synergy H1 Hybrid Reader (Biotek, Winooski Vt.). Averages of triplicates were calculated and fit to dose-response curves using Prism (Graphpad, San Diego Calif.) for the determination of EC50 values.

EC50 [µM]	Structure (SMILES)	% BSF Growth Inhibition @ 10 μM [%]
> 10	CSc1c(-c2ccccc2)n2c(=O)n(-c3ccccc3)c(=O)n12 [Compound 1]	35.6 ± 1.9
> 10	CCSc1c(-c2ccccc2)n2c(=O)n(-c3ccccc3)c(=O)n12 [Compound 2]	23.4 ± 5.7
> 5	CCCCSc1c(-c2ccccc2)n2c(=O)n(-c3ccccc3)c(=O)n12 [Compound 4]	80.5 ± 2.1
2.65 ± 0.16	CCCCCSc1c(-c2ccccc2)n2c(=O)n(-c3ccccc3)c(=O)n12 [Compound 5]	98.21 ± 0.17
2.04 ± 0.21	CCCCCCCCSc1c(-c2ccccc2)n2c(=O)n(-c3ccccc3)c(=O)n12 [Compound 6]	94.71 ± 3.48
0.386 ± 0.034	O=c1n(-c2ccccc2)c(=O)n2c(-c3ccccc3)c(SCc3ccccc3)n12 [Compound 7]	98.87 ± 2.68
> 10	O=c1n(-c2ccccc2)c(=O)n2c(-c3ccccc3)c(Sc3ccccc3)n12 [Compound 8]	11.5 ± 7
> 10	CSc1c(-c2ccc(C)cc2)n2c(=O)n(-c3ccccc3)c(=O)n12 [Compound 9]	–
3.66 ± 1.7	CCSc1c(-c2ccc(C)cc2)n2c(=O)n(-c3ccccc3)c(=O)n12 [Compound 10]	95.2 ± 3.5
> 5	COc1ccc(-c2c(SC)n3c(=O)n(-c4ccccc4)c(=O)n23)cc1 [Compound 11]	77.1 ± 3.5
> 5	CSc1c(-c2ccc(Cl)cc2)n2c(=O)n(-c3ccccc3)c(=O)n12 [Compound 12]	62.2 ± 2.7
> 2.5	CSc1c(-c2ccc(C(F)(F)F)cc2)n2c(=O)n(-c3ccccc3)c(=O)n12 [Compound 13]	89.6 ± 2.8
0.35 ± 0.04	CCCCc1c(SC)n2c(=O)n(-c3ccccc3)c(=O)n12 [Compound 14]	95.6 ± 1.2
–	CCCCSc1c(CCCC)n2c(=O)n(-c3ccccc3)c(=O)n12 [Compound 15]	59.2 ± 6.6
–	O=c1n(-c2ccccc2)c(=O)n2c(-c3ccccc3)c([Se]c3ccccc3)n12 [Compound 18]	84.24 ± 8.21
> 10	Cc1ccc(S(=O)(=O)N(C)c2c(-c3ccccc3)n3c(=O)n(-c4ccccc4)c(=O)n23)cc1 [Compound 21]	2.5 ± 4.3
> 10	Cc1ccc(S(=O)(=O)N(C)c2c(-c3ccc(C(F)(F)F)cc3)n3c(=O)n(-c4ccccc4)c(=O)n23)cc1 [Compound 22]	0
7.08 ± 1.9	CSc1c(-c2ccccc2)n2c(=O)n(-c3cccc(Cl)c3)c(=O)n12 [Compound 23]	–
> 10	COc1cccc(-n2c(=O)n3c(SC)c(-c4ccccc4)n3c2=O)c1 [Compound 25]	–

Structure (SMILES)	EC50 [µM]	% BSF Growth Inhibition @ 10 μM [%]
CCCSc1c(-c2ccccc2)n2c(=O)n(-c3ccccc3)c(=O)n12 [Compound 3]	5.83 ± 2.2	96.6 ± 0.3
C[Se]c1c(-c2ccccc2)n2c(=O)n(-c3ccccc3)c(=O)n12 [Compound 17]	> 10	46.1 ± 6.2
